Test results from ChEMBL document CHEMBL1909046, “DrugMatrix in vitro pharmacology data”.

Columns and labels:
[1] = target: C-C chemokine receptor type 5 (Homo sapiens, UniProt P51681); assay type: cell membranes, Membrane; details: hek293; further: in other assays of this panel Not Active means under 50% inhibition at 10 µM
[2] = target: C-C chemokine receptor type 2 (Homo sapiens, UniProt P41597); assay type: cell membranes, Membrane; details: cho-k1; further: in other assays of this panel Not Active means under 50% inhibition at 10 µM
Chain of C-C chemokine receptor type 2 (P41597 whole entry): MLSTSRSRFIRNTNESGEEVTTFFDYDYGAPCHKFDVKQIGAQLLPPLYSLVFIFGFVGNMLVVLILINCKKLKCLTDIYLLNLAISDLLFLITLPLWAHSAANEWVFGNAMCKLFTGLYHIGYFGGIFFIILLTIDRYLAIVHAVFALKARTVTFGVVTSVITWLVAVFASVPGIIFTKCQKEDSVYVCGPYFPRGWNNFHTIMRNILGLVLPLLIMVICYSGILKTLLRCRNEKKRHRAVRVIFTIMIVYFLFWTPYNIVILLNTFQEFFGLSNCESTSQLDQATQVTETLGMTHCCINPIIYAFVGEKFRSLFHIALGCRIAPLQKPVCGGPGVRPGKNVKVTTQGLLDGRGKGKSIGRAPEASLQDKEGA

[3] = DRUGMATRIX: Imidazoline I2, Central radioligand binding (ligand: [3H] Idazoxan); assay type: cell membranes, Rattus norvegicus, Wistar, Cerebral cortex, Membrane; details: Not Active = under 50% inhibition at 10 µM
[4] = target: 5-hydroxytryptamine receptor 6 (Homo sapiens, UniProt P50406); assay type: cell membranes, HeLa, Membrane; details: hela; further: in other assays of this panel Not Active means under 50% inhibition at 10 µM
Chain of 5-hydroxytryptamine receptor 6 (P50406 whole entry): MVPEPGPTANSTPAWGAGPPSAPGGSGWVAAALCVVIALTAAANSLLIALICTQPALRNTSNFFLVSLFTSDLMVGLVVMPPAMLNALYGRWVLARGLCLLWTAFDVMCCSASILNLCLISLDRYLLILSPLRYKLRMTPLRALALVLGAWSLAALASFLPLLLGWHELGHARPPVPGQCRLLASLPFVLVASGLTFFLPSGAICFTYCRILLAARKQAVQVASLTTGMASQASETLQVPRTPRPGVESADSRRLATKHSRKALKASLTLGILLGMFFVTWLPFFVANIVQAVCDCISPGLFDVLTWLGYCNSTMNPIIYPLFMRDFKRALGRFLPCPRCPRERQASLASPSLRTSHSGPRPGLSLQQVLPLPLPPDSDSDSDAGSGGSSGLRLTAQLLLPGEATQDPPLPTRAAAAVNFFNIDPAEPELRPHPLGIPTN

[5] = DRUGMATRIX: Glutamate, NMDA, Phencyclidine radioligand binding (ligand: [3H] TCP); assay type: cell membranes, Rattus norvegicus, Wistar, Cerebral cortex, Membrane; details: Not Active = under 50% inhibition at 10 µM
Nitric oxide synthase 1 = Nitric oxide synthase 1 (Rattus norvegicus, UniProt P29476); assay type: tissue-based, Cerebellum; further: in other assays of this panel Not Active means under 50% inhibition at 10 µM
Chain of Nitric oxide synthase 1 (P29476 whole entry): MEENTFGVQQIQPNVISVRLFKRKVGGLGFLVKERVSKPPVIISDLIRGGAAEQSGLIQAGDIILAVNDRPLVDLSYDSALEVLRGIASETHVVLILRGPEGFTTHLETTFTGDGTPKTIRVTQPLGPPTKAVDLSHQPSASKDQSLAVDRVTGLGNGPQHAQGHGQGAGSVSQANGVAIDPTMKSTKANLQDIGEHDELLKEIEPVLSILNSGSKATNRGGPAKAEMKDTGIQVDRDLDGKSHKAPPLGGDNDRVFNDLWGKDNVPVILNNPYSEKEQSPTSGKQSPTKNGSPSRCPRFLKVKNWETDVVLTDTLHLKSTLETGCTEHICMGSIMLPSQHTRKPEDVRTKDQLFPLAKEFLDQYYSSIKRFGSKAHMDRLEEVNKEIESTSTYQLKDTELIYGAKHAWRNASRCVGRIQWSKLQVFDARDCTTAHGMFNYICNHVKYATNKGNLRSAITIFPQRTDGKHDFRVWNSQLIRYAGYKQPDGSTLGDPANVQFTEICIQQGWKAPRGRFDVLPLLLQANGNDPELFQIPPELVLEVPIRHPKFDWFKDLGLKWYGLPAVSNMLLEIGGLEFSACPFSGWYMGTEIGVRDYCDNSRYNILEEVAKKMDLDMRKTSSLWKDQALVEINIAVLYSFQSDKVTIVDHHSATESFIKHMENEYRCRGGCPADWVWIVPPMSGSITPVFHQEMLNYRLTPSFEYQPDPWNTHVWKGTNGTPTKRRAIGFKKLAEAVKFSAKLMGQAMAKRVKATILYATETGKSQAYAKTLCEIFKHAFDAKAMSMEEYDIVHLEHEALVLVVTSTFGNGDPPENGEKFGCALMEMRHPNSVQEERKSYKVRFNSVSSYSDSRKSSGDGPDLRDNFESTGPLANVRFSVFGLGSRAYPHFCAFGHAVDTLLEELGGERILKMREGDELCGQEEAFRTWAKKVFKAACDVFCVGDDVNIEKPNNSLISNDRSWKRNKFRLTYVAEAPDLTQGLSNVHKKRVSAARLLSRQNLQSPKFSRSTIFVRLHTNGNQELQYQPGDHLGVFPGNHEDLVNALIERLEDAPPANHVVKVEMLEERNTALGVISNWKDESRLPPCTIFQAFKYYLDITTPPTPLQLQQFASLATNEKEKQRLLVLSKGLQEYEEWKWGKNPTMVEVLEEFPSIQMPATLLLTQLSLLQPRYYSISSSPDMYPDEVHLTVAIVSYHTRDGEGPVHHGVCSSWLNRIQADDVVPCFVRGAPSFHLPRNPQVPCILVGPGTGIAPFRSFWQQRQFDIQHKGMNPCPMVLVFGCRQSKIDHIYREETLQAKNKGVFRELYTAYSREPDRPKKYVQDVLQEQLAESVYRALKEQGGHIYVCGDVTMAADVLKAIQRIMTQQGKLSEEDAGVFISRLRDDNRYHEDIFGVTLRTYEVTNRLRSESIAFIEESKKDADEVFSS

Estrogen receptor = target: T1, Estrogen receptor (Homo sapiens, UniProt P03372); details: sf9; further: in other assays of this panel Not Active means under 50% inhibition at 10 µM
T1 sequence (P03372 whole entry): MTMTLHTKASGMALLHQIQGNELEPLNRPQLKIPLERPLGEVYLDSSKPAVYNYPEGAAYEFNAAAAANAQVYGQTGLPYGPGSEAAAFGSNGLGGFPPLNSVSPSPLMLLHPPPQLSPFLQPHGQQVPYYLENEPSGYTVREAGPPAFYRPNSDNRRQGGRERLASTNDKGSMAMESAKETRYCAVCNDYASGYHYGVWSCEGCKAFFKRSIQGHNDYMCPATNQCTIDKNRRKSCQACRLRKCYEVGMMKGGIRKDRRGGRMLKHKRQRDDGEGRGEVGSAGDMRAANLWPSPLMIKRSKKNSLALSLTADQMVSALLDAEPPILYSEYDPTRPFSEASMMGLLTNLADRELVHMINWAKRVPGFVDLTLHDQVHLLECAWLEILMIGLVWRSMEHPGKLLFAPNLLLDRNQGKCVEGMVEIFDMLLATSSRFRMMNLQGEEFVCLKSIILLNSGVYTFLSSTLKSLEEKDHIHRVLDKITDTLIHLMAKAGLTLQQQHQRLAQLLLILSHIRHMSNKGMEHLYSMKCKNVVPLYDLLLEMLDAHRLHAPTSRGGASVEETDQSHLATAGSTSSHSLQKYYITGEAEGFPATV

Chain of C-C chemokine receptor type 5 (P51681 whole entry): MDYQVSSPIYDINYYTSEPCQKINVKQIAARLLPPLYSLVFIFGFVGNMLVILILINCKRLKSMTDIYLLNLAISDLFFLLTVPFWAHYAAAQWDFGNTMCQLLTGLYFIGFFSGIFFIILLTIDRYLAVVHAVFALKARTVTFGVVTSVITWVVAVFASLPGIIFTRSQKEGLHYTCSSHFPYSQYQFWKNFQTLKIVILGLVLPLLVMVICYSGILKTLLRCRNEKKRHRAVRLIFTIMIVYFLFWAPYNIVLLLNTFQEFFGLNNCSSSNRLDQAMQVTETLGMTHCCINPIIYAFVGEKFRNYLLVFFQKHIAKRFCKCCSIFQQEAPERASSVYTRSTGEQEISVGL

Question: Which IC50 [1] does the source give for `NC(=O)c1cccnc1` [NIACINAMIDE] here?
Answer: Not Active

Question: What about the IC50 [2] of the same compound?
Answer: Not Active

Question: And the IC50 [3]?
Answer: Not Active

Question: What about the Ki [3] of the same compound?
Answer: Not Active

Question: And the IC50 [4]?
Answer: Not Active

Question: And the IC50 [5]?
Answer: Not Active

Question: And the Ki [5]?
Answer: Not Active

Question: And the IC50 (Nitric oxide synthase 1)?
Answer: Not Active

Question: What about the IC50 (Estrogen receptor) of the same compound?
Answer: Not Active

Question: Which results are given for `CN1C(=O)CN=C(c2ccccc2)c2cc([N+](=O)[O-])ccc21` [NIMETAZEPAM]?
Answer: IC50 [1]: Not Active; IC50 [2]: Not Active; IC50 [3]: Not Active; Ki [3]: Not Active; IC50 [4]: Not Active; IC50 [5]: Not Active; Ki [5]: Not Active; IC50 (Nitric oxide synthase 1): Not Active; IC50 (Estrogen receptor): Not Active

Question: Which IC50 [1] does the source give for `C[C@@H]1O[C@@H](O[C@H]2C[C@@H](O)[C@]3(CO)[C@H]4[C@H](O)C[C@]5(C)[C@@H](C6=CC(=O)OC6)CC[C@]5(O)[C@@H]4CC[C@]3(O)C2)[C@H](O)[C@H](O)[C@H]1O` [OUABAIN] here?
Answer: Not Active

Question: And the IC50 [2]?
Answer: Not Active

Question: And the IC50 [3]?
Answer: Not Active

Question: What about the Ki [3] of the same compound?
Answer: Not Active

Question: And the IC50 [4]?
Answer: Not Active

Question: And the IC50 [5]?
Answer: Not Active

Question: And the Ki [5]?
Answer: Not Active

Question: What about the IC50 (Nitric oxide synthase 1) of the same compound?
Answer: Not Active

Question: And the IC50 (Estrogen receptor)?
Answer: Not Active

Question: What does the source list for `COc1ccnc(C[S+]([O-])c2nc3ccc(OC(F)F)cc3[nH]2)c1OC` (stereo unspecified) [PANTOPRAZOLE]?
Answer: IC50 [1]: Not Active; IC50 [2]: Not Active; IC50 [3]: Not Active; Ki [3]: Not Active; IC50 [4]: Not Active; IC50 [5]: Not Active; Ki [5]: Not Active; IC50 (Nitric oxide synthase 1): Not Active; IC50 (Estrogen receptor): Not Active

Question: Which results are given for `N=C(N)c1ccc(OCCCCCOc2ccc(C(=N)N)cc2)cc1` [PENTAMIDINE]?
Answer: IC50 [1]: Not Active; IC50 [2]: Not Active; IC50 ([3]; read-out: IC50): 3520 nM; Ki ([3]; read-out: Ki): 2350 nM; IC50 [4]: Not Active; IC50 [5]: Not Active; Ki [5]: Not Active; IC50 (Nitric oxide synthase 1): Not Active; IC50 (Estrogen receptor): Not Active

Question: What does the source list for `NNCCc1ccccc1` [PHENELZINE]?
Answer: IC50 [1]: Not Active; IC50 [2]: Not Active; IC50 [3]: Not Active; Ki [3]: Not Active; IC50 [4]: Not Active; IC50 [5]: Not Active; Ki [5]: Not Active; IC50 (Nitric oxide synthase 1): Not Active; IC50 (Estrogen receptor): Not Active

Question: For `CCc1ccc(CCOc2ccc(CC3SC(=O)NC3=O)cc2)nc1` (stereo unspecified) [PIOGLITAZONE], which IC50 [1] is on record?
Answer: Not Active

Question: And the IC50 [2]?
Answer: Not Active

Question: What about the IC50 [3] of the same compound?
Answer: Not Active

Question: What about the Ki [3] of the same compound?
Answer: Not Active

Question: What about the IC50 [4] of the same compound?
Answer: Not Active

Question: And the IC50 [5]?
Answer: Not Active

Question: And the Ki [5]?
Answer: Not Active

Question: And the IC50 (Nitric oxide synthase 1)?
Answer: Not Active

Question: What about the IC50 (Estrogen receptor) of the same compound?
Answer: Not Active

Question: For `CCCNC(C)C(=O)Nc1ccccc1C` (stereo unspecified) [PRILOCAINE], which IC50 [1] is on record?
Answer: Not Active

Question: And the IC50 [2]?
Answer: Not Active

Question: And the IC50 [3]?
Answer: Not Active

Question: What about the Ki [3] of the same compound?
Answer: Not Active

Question: What about the IC50 [4] of the same compound?
Answer: Not Active

Question: And the IC50 [5]?
Answer: Not Active

Question: And the Ki [5]?
Answer: Not Active

Question: What about the IC50 (Nitric oxide synthase 1) of the same compound?
Answer: Not Active

Question: What about the IC50 (Estrogen receptor) of the same compound?
Answer: Not Active

Question: With `CCN(CC)CCCC(C)Nc1c2ccc(Cl)cc2nc2ccc(OC)cc12` (stereo unspecified) [QUINACRINE] as the compound, how does the IC50 [1] read?
Answer: Not Active

Question: And the IC50 [2]?
Answer: Not Active

Question: And the IC50 ([3]; read-out: IC50)?
Answer: 1520 nM

Question: What about the Ki ([3]; read-out: Ki) of the same compound?
Answer: 1010 nM

Question: And the IC50 [4]?
Answer: Not Active

Question: What about the IC50 [5] of the same compound?
Answer: Not Active

Question: What about the Ki [5] of the same compound?
Answer: Not Active

Question: What about the IC50 (Nitric oxide synthase 1) of the same compound?
Answer: Not Active

Question: And the IC50 (Estrogen receptor)?
Answer: Not Active

Question: Which IC50 [1] does the source give for `C[C@]12C=CC(=O)C=C1CC[C@H]1[C@@H]3C[C@@H](O)[C@](O)(C(=O)CO)[C@@]3(C)C[C@H](O)[C@@]12F` [TRIAMCINOLONE] here?
Answer: Not Active

Question: What about the IC50 [2] of the same compound?
Answer: Not Active

Question: And the IC50 [3]?
Answer: Not Active

Question: What about the Ki [3] of the same compound?
Answer: Not Active

Question: What about the IC50 [4] of the same compound?
Answer: Not Active

Question: And the IC50 [5]?
Answer: Not Active

Question: What about the Ki [5] of the same compound?
Answer: Not Active

Question: What about the IC50 (Nitric oxide synthase 1) of the same compound?
Answer: Not Active

Question: What about the IC50 (Estrogen receptor) of the same compound?
Answer: Not Active

Question: What does the source list for `CC[C@]1(O)C[C@@H]2CN(CCc3c([nH]c4ccccc34)[C@@](C(=O)OC)(c3cc4c(cc3OC)N(C)[C@H]3[C@@](O)(C(N)=O)[C@H](O)[C@]5(CC)C=CCN6CC[C@]43[C@@H]65)C2)C1` [VINDESINE]?
Answer: IC50 [1]: Not Active; IC50 [2]: Not Active; IC50 [3]: Not Active; Ki [3]: Not Active; IC50 [4]: Not Active; IC50 [5]: Not Active; Ki [5]: Not Active; IC50 (Nitric oxide synthase 1): Not Active; IC50 (Estrogen receptor): Not Active

Question: For `CCN(C(C)=O)c1cccc(-c2ccnc3c(C#N)cnn23)c1` [ZALEPLON], which IC50 [1] is on record?
Answer: Not Active

Question: And the IC50 [2]?
Answer: Not Active

Question: And the IC50 [3]?
Answer: Not Active

Question: And the Ki [3]?
Answer: Not Active

Question: What about the IC50 [4] of the same compound?
Answer: Not Active

Question: What about the IC50 [5] of the same compound?
Answer: Not Active

Question: What about the Ki [5] of the same compound?
Answer: Not Active

Question: And the IC50 (Nitric oxide synthase 1)?
Answer: Not Active

Question: What about the IC50 (Estrogen receptor) of the same compound?
Answer: Not Active

Question: What does the source list for COBALTOUS CHLORIDE?
Answer: IC50 [1]: Not Active; Ki [1]: Not Active; IC50 [2]: Not Active; Ki [2]: Not Active; IC50 [3]: Not Active; Ki [3]: Not Active; IC50 [4]: Not Active; Ki [4]: Not Active; IC50 [5]: Not Active; Ki [5]: Not Active; IC50 (Nitric oxide synthase 1): Not Active; Ki (Nitric oxide synthase 1): Not Active; IC50 (Estrogen receptor): Not Active; Ki (Estrogen receptor): Not Active

Question: Which results are given for COLISTIN?
Answer: IC50 [1]: Not Active; Ki [1]: Not Active; IC50 [2]: Not Active; Ki [2]: Not Active; IC50 [3]: Not Active; Ki [3]: Not Active; IC50 [4]: Not Active; Ki [4]: Not Active; IC50 [5]: Not Active; Ki [5]: Not Active; IC50 (Nitric oxide synthase 1): Not Active; Ki (Nitric oxide synthase 1): Not Active; IC50 (Estrogen receptor): Not Active; Ki (Estrogen receptor): Not Active
